PubChem BioAssay AID248 (DTP/NCI, 2004)
Inconclusive results and toxic doses are left out.

Test system: L1210 leukemia ip in BDF1 mice, survival T/C
Assay: NCI In Vivo Anticancer Drug Screen. Data for tumor model L1210 Leukemia (intraperitoneal) in B6D2F1 (BDF1) mice
Conditions: endpoint: mean survival time, higher = longer survival
Protocol: The antitumor activity of compounds was measured in mice bearing transplantable tumors. Survival or tumor size were measured and the results are expressed as the measurement made in the treated group (T) divided by the measurement made in the vehicle treated control group (C). The tumor model used in this assay is L1210 Leukemia (intraperitoneal) in B6D2F1 (BDF1) mice

[1] = dose: 100.0 mg/kg/injection, schedule: Q01DX009 (ip), vehicle: Klucel (hydroxypropylcellulose) (HPC)
[2] = dose: 200.0 mg/kg/injection, schedule: Q01DX009 (ip), vehicle: Klucel (hydroxypropylcellulose) (HPC)
[3] = dose: 100.0 mg/kg/injection, schedule: Q01DX001 (ip), vehicle: carboxymethylcellulose (CMC)
[4] = dose: 200.0 mg/kg/injection, schedule: Q01DX001 (ip), vehicle: carboxymethylcellulose (CMC)
[5] = dose: 400.0 mg/kg/injection, schedule: Q01DX001 (ip), vehicle: carboxymethylcellulose (CMC)
[6] = dose: 100.0 mg/kg/injection, schedule: Q01DX001 (ip), vehicle: saline
[7] = dose: 200.0 mg/kg/injection, schedule: Q01DX001 (ip), vehicle: saline
[8] = dose: 400.0 mg/kg/injection, schedule: Q01DX001 (ip), vehicle: saline
[9] = dose: 100.0 mg/kg/injection, schedule: Q01DX009 (ip), vehicle: saline with Tween-80
[10] = dose: 100.0 mg/kg/injection, schedule: Q04DX003 (ip), vehicle: saline with Tween-80
[11] = dose: 200.0 mg/kg/injection, schedule: Q01DX009 (ip), vehicle: saline with Tween-80
[12] = dose: 200.0 mg/kg/injection, schedule: Q04DX003 (ip), vehicle: saline with Tween-80
[13] = dose: 400.0 mg/kg/injection, schedule: Q04DX003 (ip), vehicle: saline with Tween-80
[14] = dose: 100.0 mg/kg/injection, schedule: Q04DX003 (ip), vehicle: Klucel (hydroxypropylcellulose) (HPC)
[15] = dose: 200.0 mg/kg/injection, schedule: Q04DX003 (ip), vehicle: Klucel (hydroxypropylcellulose) (HPC)
[16] = dose: 400.0 mg/kg/injection, schedule: Q04DX003 (ip), vehicle: Klucel (hydroxypropylcellulose) (HPC)
[17] = dose: 100.0 mg/kg/injection, schedule: Q04DX002 (ip), vehicle: saline with Tween-80
[18] = dose: 400.0 mg/kg/injection, schedule: Q01DX009 (ip), vehicle: Klucel (hydroxypropylcellulose) (HPC)
[19] = dose: 25.0 mg/kg/injection, schedule: Q04DX002 (ip), vehicle: Klucel (hydroxypropylcellulose) (HPC)

COC(=O)c1ccccc1NC(=O)Nc1cccc(Cl)c1C
T/C [1]: 86 % of control
T/C [2]: 95 % of control

Cc1cc(N(CCCl)CCCl)ccc1C=Nc1ccc(-c2csc(-c3ccccc3)n2)c(Cl)c1
T/C [3]: 98 % of control
T/C [4]: 95 % of control
T/C [5]: 107 % of control

CSc1cc(N)nc2nc[nH]c12
T/C [6]: 105 % of control
T/C [7]: 98 % of control
T/C [8]: 98 % of control

COc1cc(C(=O)N(C)C)nc(OC)n1
T/C (dose: 100.0 mg/kg/injection, schedule: Q04DX003 (ip), vehicle: saline): 106 % of control
T/C (dose: 200.0 mg/kg/injection, schedule: Q04DX003 (ip), vehicle: saline): 108 % of control
T/C (dose: 400.0 mg/kg/injection, schedule: Q04DX003 (ip), vehicle: saline): 106 % of control

CC(C)CCCC(C)C1CCC2C3CC(O)C4=CCCCC4(C)C3CCC12C (centres undefined)
T/C (dose: 9.38 mg/kg/injection, schedule: Q01DX001 (ip), vehicle: other): 97 % of control
T/C (dose: 18.75 mg/kg/injection, schedule: Q01DX001 (ip), vehicle: other): 94 % of control
T/C (dose: 37.5 mg/kg/injection, schedule: Q01DX001 (ip), vehicle: other): 94 % of control

CCCC(OC(C[N+](=O)[O-])C(Cl)(Cl)Cl)c1ccccc1 (centres undefined)
T/C [9]: 97 % of control
T/C [10]: 98 % of control
T/C [11]: 101 % of control
T/C [12]: 96 % of control
T/C (dose: 400.0 mg/kg/injection, schedule: Q01DX009 (ip), vehicle: saline with Tween-80): 107 % of control
T/C [13]: 96 % of control

CC(C)N1CC(C)(C)N=C1C(C#N)c1cnc2ccccc2n1 (centres undefined)
T/C [6]: 98 % of control
T/C [7]: 94 % of control
T/C [8]: 94 % of control

CC1(C)C2CC3C(=CCC4C(=O)C=CC(=O)C43)C1C2 (centres undefined)
T/C [14]: 95 % of control
T/C [15]: 93 % of control
T/C [16]: 95 % of control

S=C(Nc1ccccc1)N1CC1
T/C (dose: 100.0 mg/kg/injection, schedule: Q01DX001 (ip), vehicle: Klucel (hydroxypropylcellulose) (HPC)): 96 % of control
T/C [10]: 91 % of control
T/C (dose: 200.0 mg/kg/injection, schedule: Q01DX001 (ip), vehicle: Klucel (hydroxypropylcellulose) (HPC)): 98 % of control
T/C [12]: 92 % of control
T/C (dose: 400.0 mg/kg/injection, schedule: Q01DX001 (ip), vehicle: Klucel (hydroxypropylcellulose) (HPC)): 94 % of control
T/C [13]: 90 % of control

COc1ccc(C(N)=O)c(C)c1OC
T/C (dose: 50.0 mg/kg/injection, schedule: Q01DX001 (ip), vehicle: saline): 98 % of control
T/C [6]: 95 % of control
T/C [7]: 95 % of control
T/C [8]: 95 % of control

CC(C)(C)OC(=O)NCCCCC(NC(=O)OCc1ccccc1)C(=O)O (centres undefined)
T/C (dose: 25.0 mg/kg/injection, schedule: Q04DX002 (ip), vehicle: saline with Tween-80): 90 % of control
T/C (dose: 50.0 mg/kg/injection, schedule: Q04DX002 (ip), vehicle: saline with Tween-80): 97 % of control
T/C [9]: 89 % of control
T/C [17]: 101 % of control

CCOc1ccccc1NC(=S)NC(=O)c1cccc([N+](=O)[O-])c1
T/C [1]: 100 % of control
T/C [14]: 98 % of control
T/C [2]: 96 % of control
T/C [15]: 98 % of control
T/C [18]: 96 % of control
T/C [16]: 100 % of control

CCC[N+]1=C(/C=C/c2ccc3cccnc3c2O)C(C)(C)c2ccccc21
T/C [3]: 95 % of control
T/C [4]: 98 % of control
T/C [5]: 93 % of control

CCCCCCCCc1ccc(C(C)=O)cc1
T/C [1]: 94 % of control
T/C [14]: 102 % of control
T/C [2]: 96 % of control
T/C [15]: 100 % of control
T/C [18]: 86 % of control
T/C [16]: 107 % of control

O=S(O)c1ccc(Cl)cc1
T/C (dose: 100.0 mg/kg/injection, schedule: Q01DX009 (ip), vehicle: saline): 101 % of control
T/C (dose: 200.0 mg/kg/injection, schedule: Q01DX009 (ip), vehicle: saline): 100 % of control
T/C (dose: 400.0 mg/kg/injection, schedule: Q01DX009 (ip), vehicle: saline): 98 % of control

COC(OC)c1cc(S)[nH]c(=O)c1F
T/C [14]: 98 % of control
T/C [15]: 97 % of control
T/C [16]: 103 % of control

CC[C@@]1(O)C(=O)OCc2c1cc1n(c2=O)Cc2cc3c(OC)cccc3nc2-1
T/C (dose: 0.25 mg/kg/injection, schedule: Q01DX009 (ip), vehicle: saline with Tween-80): 122 % of control
T/C (dose: 0.5 mg/kg/injection, schedule: Q01DX009 (ip), vehicle: carboxymethylcellulose (CMC)): 120 % of control
T/C (dose: 0.5 mg/kg/injection, schedule: Q01DX009 (ip), vehicle: saline with Tween-80): 122 % of control
T/C (dose: 1.0 mg/kg/injection, schedule: Q01DX009 (ip), vehicle: carboxymethylcellulose (CMC)): 107 % of control
T/C (dose: 1.0 mg/kg/injection, schedule: Q01DX009 (ip), vehicle: saline with Tween-80): 162 % of control
T/C (dose: 4.0 mg/kg/injection, schedule: Q01DX009 (ip), vehicle: carboxymethylcellulose (CMC)): 88 % of control
T/C (dose: 4.0 mg/kg/injection, schedule: Q04DX003 (ip), vehicle: saline with Tween-80): 173 % of control
T/C (dose: 8.0 mg/kg/injection, schedule: Q04DX003 (ip), vehicle: saline with Tween-80): 215 % of control
T/C (dose: 12.5 mg/kg/injection, schedule: Q04DX003 (ip), vehicle: saline with Tween-80): 123 % of control
T/C (dose: 25.0 mg/kg/injection, schedule: Q04DX003 (ip), vehicle: saline with Tween-80): 96 % of control
T/C (dose: 50.0 mg/kg/injection, schedule: Q04DX003 (ip), vehicle: saline with Tween-80): 93 % of control

CC[CH2][Pb]([CH2]CC)([CH2]CC)[O]C(=O)C(F)(F)F
T/C (dose: 12.5 mg/kg/injection, schedule: Q04DX002 (ip), vehicle: Klucel (hydroxypropylcellulose) (HPC)): 107 % of control
T/C [19]: 95 % of control

ClCCN(CCCl)c1ccc(C=Nc2ccc(/C=C\c3ccnc4ccccc34)cc2)cc1
T/C (dose: 100.0 mg/kg/injection, schedule: Q01DX001 (ip), vehicle: other): 96 % of control
T/C (dose: 200.0 mg/kg/injection, schedule: Q01DX001 (ip), vehicle: other): 94 % of control
T/C (dose: 400.0 mg/kg/injection, schedule: Q01DX001 (ip), vehicle: other): 94 % of control

COc1c2c(c3ccccc3c1OC(C)=O)OC(C)(C)CC2
T/C (dose: 100.0 mg/kg/injection, schedule: Q01DX001 (ip), vehicle: saline with Tween-80): 88 % of control
T/C (dose: 200.0 mg/kg/injection, schedule: Q01DX001 (ip), vehicle: saline with Tween-80): 92 % of control
T/C (dose: 400.0 mg/kg/injection, schedule: Q01DX001 (ip), vehicle: saline with Tween-80): 90 % of control

CCCC(=O)N1C(C)CCC1C (centres undefined)
T/C [17]: 103 % of control
T/C (dose: 200.0 mg/kg/injection, schedule: Q04DX002 (ip), vehicle: saline with Tween-80): 95 % of control

CCOC(=O)/C=[C](\C(=O)OCC)[Sn]([CH2]C)([CH2]C)[CH2]C
T/C (dose: 50.0 mg/kg/injection, schedule: Q01DX009 (ip), vehicle: saline with Tween-80): 104 % of control
T/C [9]: 96 % of control
T/C [11]: 93 % of control

COC1OC2COC(c3ccccc3)OC2C2OC(=S)OC12 (centres undefined)
T/C [19]: 104 % of control
T/C (dose: 50.0 mg/kg/injection, schedule: Q04DX002 (ip), vehicle: Klucel (hydroxypropylcellulose) (HPC)): 97 % of control
T/C [6]: 102 % of control
T/C (dose: 100.0 mg/kg/injection, schedule: Q04DX002 (ip), vehicle: Klucel (hydroxypropylcellulose) (HPC)): 104 % of control
T/C (dose: 100.0 mg/kg/injection, schedule: Q04DX002 (ip), vehicle: saline): 93 % of control
T/C [7]: 98 % of control
T/C (dose: 200.0 mg/kg/injection, schedule: Q04DX002 (ip), vehicle: saline): 100 % of control
T/C [8]: 98 % of control
T/C (dose: 400.0 mg/kg/injection, schedule: Q04DX002 (ip), vehicle: saline): 107 % of control
